According to publication PMC7038240 (Antimicrobial Agents and Chemotherapy, 2020):
Read-outs that look alike come from different tables or passages of the source.

Assays:
Test in all cases: microbe, parasite or virus in culture
Format in all cases: cell-based
S. paratyphi = settings: Salmonella enterica, strain 527, AmpC/TEM-1
K. aerogenes = settings: Klebsiella aerogenes
K. oxytoca = settings: Klebsiella oxytoca, read-out: MIC
C. freundii = settings: Citrobacter freundii
S. typhi = settings: Salmonella enterica, strain 26A, AmpC/TEM-1
E. coli = settings: Escherichia coli, read-out: MIC
P. aeruginosa = settings: Pseudomonas aeruginosa

CO/N=C(\C(=O)N[C@@H]1C(=O)N2C(C(=O)[O-])=C(C[N+]3(C)CCCC3)CS[C@H]12)c1csc(N)n1 [FEP]
MIC (S. paratyphi): 64 µg/mL | MIC (K. aerogenes; strain 73546, AmpC): 0.5 µg/mL | MIC (K. aerogenes; strain 110099, AmpC/SHV-12): 4 µg/mL | MIC (K. aerogenes; strain 111707, AmpC/TEM-1): 4 µg/mL | MIC (K. oxytoca; strain 134943, CMY-2/TEM-1): 4 µg/mL | MIC (K. oxytoca; strain 847537, KPC): 32 µg/mL | MIC (C. freundii; strain 134390, AmpC/TEM-1): 0.5 µg/mL | MIC (C. freundii; strain 241181, AmpC/TEM-163): 8 µg/mL | MIC (S. typhi): 4 µg/mL | MIC (E. coli; ATCC25922, E. coli ATCC 25922, enzyme content None): 0.06 µg/mL | MIC (E. coli; E. coli CDC-0452, NDM): 64 µg/mL | MIC (E. coli; NCTC13353, E. coli NCTC 13353, CTX-M-15): 64 µg/mL | MIC (E. coli; strain 469, AmpC/SHV-12/TEM-1): 1 µg/mL | MIC (E. coli; strain 1924, TEM-12): 16 µg/mL | MIC (E. coli; strain 664507, OXA-48): 16 µg/mL | MIC (E. coli; strain 664516, OXA-48): 64 µg/mL | MIC (E. coli; strain 664520, OXA-48): 32 µg/mL | MIC (E. coli; strain 664522, OXA-48): 64 µg/mL | MIC (E. coli; strain 664523, OXA-48): 128 µg/mL | MIC (E. coli; strain 849121, KPC): 64 µg/mL | MIC (E. coli; strain 873435, CTX-M-15): 128 µg/mL | MIC (E. coli; strain 875627, CTX-M-27): 8 µg/mL | MIC (E. coli; strain 878358, TEM-1/CTX-M): ≥ 256 µg/mL | MIC (E. coli; strain 890500, TEM-1/CTX-M-14): 64 µg/mL | MIC (E. coli; strain 1275635, VIM-23): 64 µg/mL | MIC (E. coli; strain 1459453, NDM-7): ≥ 256 µg/mL | MIC (E. coli; strain CDC-0001, KPC): 128 µg/mL | MIC (E. coli; strain CDC-0069, NDM): 32 µg/mL | MIC (E. coli; strain CDC-0149, NDM): ≥ 256 µg/mL | MIC (E. coli; strain EC1552 2A, AmpC/CMY-2/TEM-1, CTX-M-15): 4 µg/mL | MIC (E. coli; strain ESBL 5, CTX-M-15/TEM-1): ≥ 256 µg/mL | MIC (E. coli; strain SI-LP377, CTX-M-2): 64 µg/mL | MIC (E. coli; strain SI-M004, SHV-2/GES-12): 16 µg/mL | MIC (E. coli; strain SI-PO26, AmpC/CMY-2/TEM-1): 0.25 µg/mL | MIC (E. coli; strain SI-V502, TEM-29/CTX-M-15): 8 µg/mL | MIC (E. coli; strain VER, OXA-48): 0.5 µg/mL | MIC (P. aeruginosa): 16 µg/mL | MIC (P. aeruginosa; ATCC27853, P. aeruginosa ATCC 27853, PDC-5, read-out: MIC): 1 µg/mL | MIC (P. aeruginosa; ATCC27853, strain ATCC 27853, W.T., read-out: MIC): 1 µg/mL | MIC (P. aeruginosa; P. aeruginosa CDC-0457, VIM, read-out: MIC): 16 µg/mL | MIC (P. aeruginosa; P. aeruginosa PS-12 (ST-235, VIM-2), BLI fixed at 4 μg/ml, read-out: MIC): 32 µg/mL | MIC (P. aeruginosa; strain 10.257, PDC-50, read-out: MIC): 32 µg/mL | MIC (P. aeruginosa; strain 11.516, PDC-79, read-out: MIC): 16 µg/mL | MIC (P. aeruginosa; strain 11.698, PDC-87, read-out: MIC): 128 µg/mL | MIC (P. aeruginosa; strain 11.813, PDC-91, read-out: MIC): ≥ 256 µg/mL | MIC (P. aeruginosa; strain 13.1716, PDC-74, read-out: MIC): 128 µg/mL | MIC (P. aeruginosa; strain 13.1717, PDC-74, read-out: MIC): 64 µg/mL | MIC (P. aeruginosa; strain 13.1737, PDC-80, read-out: MIC): 16 µg/mL | MIC (P. aeruginosa; strain 13.1755, PDC-86, read-out: MIC): 16 µg/mL | MIC (P. aeruginosa; strain 13.1760, PDC-77, read-out: MIC): 16 µg/mL | MIC (P. aeruginosa; strain 13.1775, PDC-87, read-out: MIC): 64 µg/mL | MIC (P. aeruginosa; strain 247.3D, VIM-2, read-out: MIC): 32 µg/mL | MIC (P. aeruginosa; strain 1129, PDC, read-out: MIC): 4 µg/mL | MIC (P. aeruginosa; strain 3615, PDC/TEM-1, read-out: MIC): 16 µg/mL | MIC (P. aeruginosa; strain 5671, VIM-1, read-out: MIC): 16 µg/mL | MIC (P. aeruginosa; strain 8273, PDC/TEM-1, read-out: MIC): 8 µg/mL | MIC (P. aeruginosa; strain 164951, W.T., read-out: MIC): 1 µg/mL | MIC (P. aeruginosa; strain 377860, W.T., read-out: MIC): 4 µg/mL | MIC (P. aeruginosa; strain 384743, PDC/TEM-1, read-out: MIC): 4 µg/mL | MIC (P. aeruginosa; strain 1013996, KPC-2, read-out: MIC): ≥ 256 µg/mL | MIC (P. aeruginosa; strain 1071703, GES-6, read-out: MIC): 16 µg/mL | MIC (P. aeruginosa; strain 1113755, GES-5, read-out: MIC): 32 µg/mL | MIC (P. aeruginosa; strain 1138223, GES-19, read-out: MIC): ≥ 256 µg/mL | MIC (P. aeruginosa; strain 1138337, GES-19, read-out: MIC): ≥ 256 µg/mL | MIC (P. aeruginosa; strain 1258509, GES-6, read-out: MIC): 32 µg/mL | MIC (P. aeruginosa; strain 1275655, GES-20, read-out: MIC): ≥ 256 µg/mL | MIC (P. aeruginosa; strain 1300089, GES-19, read-out: MIC): ≥ 256 µg/mL | MIC (P. aeruginosa; strain 1313666, KPC-2, read-out: MIC): ≥ 256 µg/mL
